Experimental data reported in PMC12881681 (Molecular Pharmacology, 2025).

How the values were obtained:
Assay type in all cases: biochemical
[1] = biological target: T1, human liver cytosolic AOX1 (Homo sapiens, UniProt Q06278); design: Enzymatic reaction was initiated by adding human liver cytosol (100 μg); tissue Corning, Inc. (Gentest brand) 452115; host or cells: human liver cytosol, pool of 150 donors; conditions: 5 mM agent, 10 min; erlotinib 1.5 μM, analogs 2 μM
T1 sequence (Q06278 1-1338): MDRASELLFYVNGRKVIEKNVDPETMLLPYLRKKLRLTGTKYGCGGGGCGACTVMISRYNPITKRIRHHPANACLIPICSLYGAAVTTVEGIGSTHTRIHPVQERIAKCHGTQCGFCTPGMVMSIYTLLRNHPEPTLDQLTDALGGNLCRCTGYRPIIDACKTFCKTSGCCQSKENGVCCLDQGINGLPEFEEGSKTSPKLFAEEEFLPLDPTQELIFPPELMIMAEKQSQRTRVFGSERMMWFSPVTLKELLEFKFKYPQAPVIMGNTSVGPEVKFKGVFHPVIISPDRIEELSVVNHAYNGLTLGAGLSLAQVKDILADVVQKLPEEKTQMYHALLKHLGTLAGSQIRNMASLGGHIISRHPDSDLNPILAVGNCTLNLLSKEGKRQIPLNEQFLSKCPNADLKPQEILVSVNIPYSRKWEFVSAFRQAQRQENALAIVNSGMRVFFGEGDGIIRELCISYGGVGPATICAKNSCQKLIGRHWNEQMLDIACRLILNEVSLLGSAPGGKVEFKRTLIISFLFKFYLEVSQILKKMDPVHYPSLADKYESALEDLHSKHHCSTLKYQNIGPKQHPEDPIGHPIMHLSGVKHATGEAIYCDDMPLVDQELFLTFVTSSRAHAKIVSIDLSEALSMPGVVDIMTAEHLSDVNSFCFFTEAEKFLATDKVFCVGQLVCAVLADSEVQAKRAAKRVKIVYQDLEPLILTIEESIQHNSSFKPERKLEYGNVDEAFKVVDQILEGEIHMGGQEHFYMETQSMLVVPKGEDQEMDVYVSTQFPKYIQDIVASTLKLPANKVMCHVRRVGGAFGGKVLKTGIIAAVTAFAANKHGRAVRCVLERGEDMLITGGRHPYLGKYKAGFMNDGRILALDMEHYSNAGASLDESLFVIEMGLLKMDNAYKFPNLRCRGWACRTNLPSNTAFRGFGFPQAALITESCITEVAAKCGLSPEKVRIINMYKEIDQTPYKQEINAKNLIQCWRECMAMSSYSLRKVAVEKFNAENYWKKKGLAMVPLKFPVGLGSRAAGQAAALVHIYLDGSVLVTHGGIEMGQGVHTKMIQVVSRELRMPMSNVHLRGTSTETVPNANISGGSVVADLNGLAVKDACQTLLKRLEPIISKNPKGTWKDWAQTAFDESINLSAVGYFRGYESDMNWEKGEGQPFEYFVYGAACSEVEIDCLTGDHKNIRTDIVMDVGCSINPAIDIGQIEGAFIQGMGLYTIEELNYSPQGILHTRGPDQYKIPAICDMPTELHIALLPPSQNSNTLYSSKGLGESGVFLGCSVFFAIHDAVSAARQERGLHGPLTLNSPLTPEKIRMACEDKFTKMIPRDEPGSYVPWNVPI
Description: Potassium ferricyanide (5 mM; oxidizing agent), sodium dithionite (5 mM; reducing agent), or potassium phosphate buffer (vehicle for oxidizing/reducing agent) was preincubated with human liver cytosol (200 μg protein) in a total volume of 100 μL at 37 °C for 10 minutes. […] After a 0 or 6-minute preincubation duration, an aliquot (10 μL) of the secondary incubation mixture was transferred to a prewarmed tertiary incubation mixture (total volume of 200 μL) containing potassium phosphate buffer and carbazeran (15 μM), which yielded a 20-fold dilution of the secondary incubation mixture. The tertiary incubation mixture was incubated for 5 minutes at 37 °C before the enzymatic reaction was terminated with 200 μL of ice-cold acetonitrile containing carbazeran-d4 (2.5 nM final concentration; internal standard for 4-oxo-carbazeran). The residual AOX1 enzyme activity was determined by the carbazeran 4-oxidation assay.

[2] = biological target: T1, human liver cytosolic AOX1; assay: AOX1 inactivation, O^6-benzylguanine 8-oxidation by human liver cytosol; design: Enzymatic reaction was initiated by adding human liver cytosol (100 μg); tissue Corning, Inc. (Gentest brand) 452115; host or cells: human liver cytosol, pool of 150 donors; conditions: gefitinib 3, 10, 30 μM
[3] = biological target: T1, human liver cytosolic AOX1; assay: Dialysis experiment (reversibility of AOX1 inactivation); design: Enzymatic reaction was initiated by adding human liver cytosol (100 μg); tissue Corning, Inc. (Gentest brand) 452115; host or cells: human liver cytosol, pool of 150 donors; conditions: 1.5 μM; for recovery of carbazeran 4-oxidation activity after dialysis: 4 and 24 hours of dialysis at 4 °C; for residual AOX1 activity: 6-minute preincubation, % of nondialyzed vehicle control
Description: Simultaneously, another aliquot (150 μL) of the primary incubation mixture was transferred to a Slide-A-Lyzer mini dialysis device (0.1 mL) with a molecular weight cutoff of 10,000 (Pierce Chemical Co.) and placed in a beaker filled with 300 mL of ice-cold potassium phosphate buffer (100 mM, pH 7.4). Additionally, potassium phosphate buffer (300 mL) was replaced at 2 and 4 hours after the start of dialysis. Dialysis was performed at 4 °C for 4 and 24 hours with constant gentle stirring. Subsequently, 10 μL of the dialyzed mixture was transferred to the secondary incubation mixture and the residual AOX1 enzyme activity was determined by the carbazeran 4-oxidation assay.

[4] = biological target: T2, human recombinant AOX1 (Homo sapiens, UniProt Q06278); assay: Time-dependent inactivation of carbazeran 4-oxidation by human recombinant AOX1; conditions: each 10 μM (raloxifene 0.02 μM), 30-minute preincubation, vs vehicle control without preincubation
T2 construct: purchased Cypex Ltd CYP150
T2 sequence (Q06278 1-1338): T1 sequence (Q06278 1-1338)
Description: Carbazeran 4-oxidation and O^6-benzylguanine 8-oxidation were deployed as AOX1-selective catalytic markers.[27] The assay conditions (amount of cytosolic protein, incubation time, and substrate concentration) for carbazeran 4-oxidation catalyzed by human recombinant AOX1 and human/rat/mouse liver cytosols were optimized previously.[7]^,[25]
Enzymatic reaction was initiated by adding human liver cytosol (100 μg). After the specified preincubation duration, an aliquot (10 μL) of the preincubation mixture was transferred to 190 μL of a prewarmed (for 3 minutes at 37 °C) secondary incubation mixture (total volume of 200 μL) containing potassium phosphate buffer and carbazeran (15 μM) or O^6-benzylguanine (150 μM), which yielded a 20-fold dilution of the primary incubation mixture. The secondary incubation mixture was incubated for 5 minutes at 37 °C before the enzymatic reaction was terminated with 200 μL of ice-cold acetonitrile containing carbazeran-d4 (2.5 nM final concentration; internal standard for 4-oxo-carbazeran) or tolbutamide (25 nM final concentration; internal standard for 8-oxo-O^6-benzylguanine). Each sample was immediately mixed by vortex, placed on ice, centrifuged at 16,000g for 15 minutes at 4 °C and stored at –30 °C until ultra-high performance liquid chromatography–tandem mass spectrometry (UPLC-MS/MS) analysis. For enzyme inactivation assays involving rat and mouse liver cytosol and recombinant AOX1 assays, the experimental conditions were similar to those of human liver cytosol, except that the amount of cytosolic protein was 200 μg (rat) and 150 μg (mouse), respectively, and the incubation time of the secondary incubation mixture was 60 minutes. For the recombinant AOX1 enzyme assay, the amount of enzyme was 100 μg, the incubation time of the secondary incubation mixture was 15 minutes, and the total volume of the primary and secondary incubation mixtures was reduced to 100 μL.
An aliquot (10 μL) of the primary incubation mixture was transferred to a secondary incubation mixture containing carbazeran (15 μM) and incubated for (A) 180, (B) 5, or (C, D) 120 minutes.

SMILES	effect of preincubating cytosol with potassium ferricyanide or sodium dithionite on AOX1 inactivation [1]	effect of gefitinib on extent of AOX1 inactivation [2]	recovery of carbazeran 4-oxidation activity after dialysis [3]	residual AOX1 activity ([3]; 24-hour dialysis at 4 °C) [%]	residual AOX1 activity ([3]; without dialysis) [%]	decrease in carbazeran 4-oxidation [4] [%]
C#Cc1cccc(Nc2nc(C)nc3cc(OCCOC)c(OCCOC)cc23)c1 [2-Methylerlotinib, 2-methylerlotinib]	neither sodium dithionite nor potassium ferricyanide affected	–	–	–	–	–
C#Cc1cccc(Nc2ncnc3cc(OCCOC)c(OCCOC)cc23)c1 [Erlotinib]	neither sodium dithionite nor potassium ferricyanide affected	attenuated	not recovered	3.7	7.8	–
C#Cc1cccc(Nc2ncnc3cc(OCCOC)c(OCCO)cc23)c1 [O-Desmethylerlotinib, O-desmethylerlotinib]	–	attenuated	not reversed	–	–	91
C#Cc1cccc(Nc2ncnc3cc(OCCO)c(OCCO)cc23)c1 [O-Didesmethylerlotinib, O-didesmethylerlotinib]	–	attenuated	not reversed	–	–	94
